# Data as given in patent US20240190880A1 (THE REGENTS OF THE UNIVERSITY OF MICHIGAN, priority 2021, published 2024).
# Molecular target: T1, ER (Homo sapiens, UniProt P03372)
# T1 construct: host or cells: T47D and MCF7 human breast cancer cells
# T1 sequence (P03372 1-595): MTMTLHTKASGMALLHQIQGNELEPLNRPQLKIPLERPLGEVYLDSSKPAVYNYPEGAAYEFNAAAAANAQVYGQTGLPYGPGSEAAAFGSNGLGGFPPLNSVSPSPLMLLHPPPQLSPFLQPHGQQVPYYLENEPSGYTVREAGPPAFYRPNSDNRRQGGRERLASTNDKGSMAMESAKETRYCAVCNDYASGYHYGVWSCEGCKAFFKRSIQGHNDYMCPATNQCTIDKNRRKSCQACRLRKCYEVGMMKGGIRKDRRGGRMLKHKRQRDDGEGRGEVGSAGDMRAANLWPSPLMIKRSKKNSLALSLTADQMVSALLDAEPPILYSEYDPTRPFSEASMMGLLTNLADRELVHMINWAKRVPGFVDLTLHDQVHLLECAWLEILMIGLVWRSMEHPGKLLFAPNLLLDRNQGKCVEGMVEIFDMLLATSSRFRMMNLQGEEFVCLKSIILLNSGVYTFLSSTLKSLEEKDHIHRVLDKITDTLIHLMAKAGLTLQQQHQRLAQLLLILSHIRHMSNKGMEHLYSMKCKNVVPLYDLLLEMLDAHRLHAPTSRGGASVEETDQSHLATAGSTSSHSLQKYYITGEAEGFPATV
# Assay: ER degradation activity, in-cell western blot analysis in T47D cells
# Type: cell-based
# Settings: 16 hours, Table A does not say which cell line (T47D or MCF7), read-out: Potency (DC50)
# Method in brief: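 Cells were seeded overnight, exposed to diluted compounds for 16 hours, then stained with primary antibodies and with infrared-labelled secondary antibodies (1:1000, 1 h RT). Plates were scanned on a CLX reader, and ER levels were normalised to DMSO-treated wells.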
row,DC50,Compound
1,10 to 100 nM,"O=C1CCC(N2C(=O)c3cc4c(cc3C2=O)CN(CC(=O)N2CC3(C2)CN(c2ccc([C@@H]5c6ccc(O)cc6CC[C@@H]5c5ccc(F)cc5)cc2)C3)C4)C(=O)N1 (mixture of isomers) [E 18, Rac-2-(2,6-dioxopiperidin-3-yl)-6-(2-(6-(4-((1R,2S)-2-(4-fluorophenyl)-6-hydroxy-1,2,3,4-tetrahydronaphthalen-1-yl)phenyl)-2,6-diazaspiro[3.3]heptan-2-yl)-2-oxoethyl)-6,7-dihydropyrrolo[3,4-f]isoindole-1,3(2H,5H)-dione]"
2,> 100 nM,"O=C1CCC(N2C(=O)c3cc4c(cc3C2=O)CN(CC2(F)CCN(CC3CN(c5ccc([C@@H]6c7ccc(O)cc7CC[C@@H]6c6ccccc6)cc5)C3)CC2)C4)C(=O)N1 (stereo partly drawn) [E245, 2-(2,6-dioxopiperidin-3-yl)-6-((4-fluoro-1-((1-(4-((1R,2S)-6-hydroxy-2-phenyl-1,2,3,4-tetrahydronaphthalen-1-yl)phenyl)azetidin-3-yl)methyl)piperidin-4-yl)methyl)-6,7-dihydropyrrolo[3,4-f]isoindole-1,3(2H,5H)-dione]"
3,10 to 100 nM,"O=C1CCC(N2C(=O)c3cc4c(cc3C2=O)CN(CC(=O)N2CCC3(CC2)CCN(c2ccc(C(=C(CCCl)c5ccc(F)cc5)c5ccc(O)cc5)cc2)CC3)C4)C(=O)N1 (stereo not shown) [E 196, 6-(2-(9-(4-(4-chloro-2-(4-fluorophenyl)-1-(4-hydroxyphenyl)but-1-en-1-yl)phenyl)-3,9-diazaspiro[5.5]undecan-3-yl)-2-oxoethyl)-2-(2,6-dioxopiperidin-3-yl)-6,7-dihydropyrrolo[3,4-f]isoindole-1,3(2H,5H)-dione]"
4,10 to 100 nM,"O=C1CCC(N2Cc3cc4c(cc3C2=O)CN(C(=O)C2CCC(NC3CN(c5ccc([C@@H]6c7ccc(O)cc7CC[C@@H]6c6ccccc6)cc5)C3)CC2)C4)C(=O)N1 (stereo partly drawn) [E 359, 3-(6-(4-((1-(4-((1R,2S)-6-hydroxy-2-phenyl-1,2,3,4-tetrahydronaphthalen-1-yl)phenyl)azetidin-3-yl)amino)cyclohexane-1-carbonyl)-1-oxo-3,5,6,7-tetrahydropyrrolo[3,4-f]isoindol-2(1H)-yl)piperidine-2,6-dione]"

# The remaining lines, values behind:
row,Compound,DC50
1,"C[C@@H]1Cc2cc(O)ccc2[C@@H](c2c(F)cc(N3CCC(N4CCC(C(=O)N5Cc6cc7c(cc6C5)C(=O)N(C5CCC(=O)NC5=O)C7)CC4)CC3)cc2F)N1CC(C)(F)F (stereo partly drawn) [E 30, 3-(6-(1′-(4-((1S,3R)-2-(2,2-difluoropropyl)-6-hydroxy-3-methyl-1,2,3,4-tetrahydroisoquinolin-1-yl)-3,5-difluorophenyl)-[1,4′-bipiperidine]-4-carbonyl)-1-oxo-3,5,6,7-tetrahydropyrrolo[3,4-f]isoindol-2(1H)-yl)piperidine-2,6-dione]",> 100 nM
2,"C[C@@H]1Cc2c([nH]c3ccccc23)[C@@H](c2c(F)cc(N3CCC(CN4CCC5(CCC(N6Cc7cc8c(cc7C6)C(=O)N(C6CCC(=O)NC6=O)C8=O)C5)CC4)CC3)cc2F)N1CC(F)F (stereo partly drawn) [E 133, 6-(8-((1-(4-((1R,3R)-2-(2,2-difluoroethyl)-3-methyl-2,3,4,9-tetrahydro-1H-pyrido[3,4-b]indol-1-yl)-3,5-difluorophenyl)piperidin-4-yl)methyl)-8-azaspiro[4.5]decan-2-yl)-2-(2,6-dioxopiperidin-3-yl)-6,7-dihydropyrrolo[3,4-f]isoindole-1,3(2H,5H)-dione]",10 to 100 nM
3,"C[C@@H]1Cc2cc(O)ccc2[C@@H](c2c(F)cc(N3CC4(CCN(CC(=O)N5Cc6cc7c(cc6C5)C(=O)N(C5CCC(=O)NC5=O)C7)C4)C3)cc2F)N1CC(F)F (stereo partly drawn) [E 40, 3-(6-(2-(2-(4-((1S,3R)-2-(2,2-difluoroethyl)-6-hydroxy-3-methyl-1,2,3,4-tetrahydroisoquinolin-1-yl)-3,5-difluorophenyl)-2,6-diazaspiro[3.4]octan-6-yl)acetyl)-1-oxo-3,5,6,7-tetrahydropyrrolo[3,4-f]isoindol-2(1H)-yl)piperidine-2,6-dione]",< 10 nM
4,"C[C@@H]1Cc2c([nH]c3ccccc23)[C@@H](c2c(F)cc(N3CCC(C(=O)N4CCC(N5Cc6cc7c(cc6C5)C(=O)N(C5CCC(=O)NC5=O)C7=O)CC4)CC3)cc2F)N1CC(C)(F)F (stereo partly drawn) [E 252, 6-(1-(1-(4-((1R,3R)-2-(2,2-difluoropropyl)-3-methyl-2,3,4,9-tetrahydro-1H-pyrido[3,4-b]indol-1-yl)-3,5-difluorophenyl)piperidine-4-carbonyl)piperidin-4-yl)-2-(2,6-dioxopiperidin-3-yl)-6,7-dihydropyrrolo[3,4-f]isoindole-1,3(2H,5H)-dione]",< 10 nM
5,"C[C@@H]1Cc2c([nH]c3ccccc23)[C@@H](c2cnc(N3CCC(C(=O)N4CCC(N5Cc6cc7c(cc6C5)C(=O)N(C5CCC(=O)NC5=O)C7=O)CC4)CC3)nc2)N1CC(F)(F)F (stereo partly drawn) [E 257, 2-(2,6-dioxopiperidin-3-yl)-6-(1-(1-(5-((1R,3R)-3-methyl-2-(2,2,2-trifluoroethyl)-2,3,4,9-tetrahydro-1H-pyrido[3,4-b]indol-1-yl)pyrimidin-2-yl)piperidine-4-carbonyl)piperidin-4-yl)-6,7-dihydropyrrolo[3,4-f]isoindole-1,3(2H,5H)-dione]",< 10 nM
6,"C[C@@H]1Cc2c([nH]c3ccccc23)[C@@H](c2c(F)cc(N3CCC(CN4CCC(N5Cc6cc7c(cc6C5)C(=O)N(C5CCC(=O)NC5=O)C7)CC4)CC3)cc2F)N1CC(F)F (stereo partly drawn) [E 53, 3-(6-(1-((1-(4-((1R,3R)-2-(2,2-difluoroethyl)-3-methyl-2,3,4,9-tetrahydro-1H-pyrido[3,4-b]indol-1-yl)-3,5-difluorophenyl)piperidin-4-yl)methyl)piperidin-4-yl)-1-oxo-3,5,6,7-tetrahydropyrrolo[3,4-f]isoindol-2(1H)-yl)piperidine-2,6-dione]",10 to 100 nM

# Same assay, conditions: compounds 16 hours, Table A does not say whether T47D or MCF7, read-out: Potency (DC50)
row,DC50,Compound
1,> 100 nM,"O=C1CCC(N2Cc3cc4c(cc3C2=O)CN(CC2CN(CC3CCN(c5ccc([C@@H]6c7ccc(O)cc7CC[C@@H]6c6ccccc6)cc5)CC3)C2)C4=O)C(=O)N1 (stereo partly drawn) [E 504, 2-(2,6-dioxopiperidin-3-yl)-6-((1-((1-(4-((1R,2S)-6-hydroxy-2-phenyl-1,2,3,4-tetrahydronaphthalen-1-yl)phenyl)piperidin-4-yl)methyl)azetidin-3-yl)methyl)-2,3,6,7-tetrahydropyrrolo[3,4-f]isoindole-1,5-dione]"
2,10 to 100 nM,"O=C1CCC(N2C(=O)c3cc4c(cc3C2=O)CN(C[C@H]2CC[C@H](C(=O)N3CC(Oc5ccc([C@@H]6c7ccc(O)cc7CC[C@@H]6c6ccccc6)cc5)C3)CC2)C4)C(=O)N1 (mixture of isomers) [E 498, 2-(2,6-dioxopiperidin-3-yl)-6-(((IRS,4SR)-4-(3-(4-((1R,2S)-6-hydroxy-2-phenyl-1,2,3,4-tetrahydronaphthalen-1-yl)phenoxy)azetidine-1-carbonyl)cyclohexyl)methyl)-6,7-dihydropyrrolo[3,4-f]isoindole-1,3(2H,5H)-dione]"
3,> 100 nM,"O=C1CCC(N2C(=O)c3cc4c(cc3C2=O)CN(CC2CCC3(CC2)CCN(C(=O)c2ccc([C@@H]5c6ccc(O)cc6CC[C@@H]5c5ccccc5)cc2)CC3)C4)C(=O)N1 (stereo partly drawn) [E 492, 2-(2,6-dioxopiperidin-3-yl)-6-((3-(4-((1R,2S)-6-hydroxy-2-phenyl-1,2,3,4-tetrahydronaphthalen-1-yl)benzoyl)-3-azaspiro[5.5]undecan-9-yl)methyl)-6,7-dihydropyrrolo[3,4-f]isoindole-1,3(2H,5H)-dione]"
4,> 100 nM,"O=C1CCC(N2C(=O)c3cc4c(cc3C2=O)CC2(C4)CN(C(=O)CN3CC(Oc4ccc([C@@H]5c6ccc(O)cc6CC[C@@H]5c5ccccc5)cc4)C3)C2)C(=O)N1 (stereo partly drawn) [E 502, 2′-(2,6-dioxopiperidin-3-yl)-1-(2-(3-(4-((1R,2S)-6-hydroxy-2-phenyl-1,2,3,4-tetrahydronaphthalen-1-yl)phenoxy)azetidin-1-yl)acetyl)-5′,7′-dihydro-1′H-spiro[azetidine-3,6′-cyclopenta[f]isoindole]-1′,3′(2′H)-dione]"

# Continued, compound first:
row,Compound,DC50
1,"C[C@@H]1Cc2c([nH]c3ccccc23)[C@@H](c2ncc(C3=CCC(C(=O)N4CCC(N5Cc6cc7c(cc6C5)C(=O)N(C5CCC(=O)NC5=O)C7=O)CC4)CC3)cc2F)N1CC(C)(C)F (stereo partly drawn) [E 484, 2-(2,6-dioxopiperidin-3-yl)-6-(1-(4-(5-fluoro-6-((1S,3R)-2-(2-fluoro-2-methylpropyl)-3-methyl-2,3,4,9-tetrahydro-1H-pyrido[3,4-b]indol-1-yl)pyridin-3-yl)cyclohex-3-ene-1-carbonyl)piperidin-4-yl)-6,7-dihydropyrrolo[3,4-f]isoindole-1,3(2H,5H)-dione]",> 100 nM
2,"C[C@@H]1Cc2cc(O)ccc2[C@@H](c2ccc(C(=O)N3CCC4(CCC(CN5Cc6cc7c(cc6C5)C(=O)N(C5CCC(=O)NC5=O)C7=O)CC4)CC3)cc2)N1CC(F)F (stereo partly drawn) [E 454, 6-((3-(4-((1R,3R)-2-(2,2-difluoroethyl)-6-hydroxy-3-methyl-1,2,3,4-tetrahydroisoquinolin-1-yl)benzoyl)-3-azaspiro[5.5]undecan-9-yl)methyl)-2-(2,6-dioxopiperidin-3-yl)-6,7-dihydropyrrolo[3,4-f]isoindole-1,3(2H,5H)-dione]",> 100 nM
